Measured values taken from article PMC10587869, “Deciphering Structural Determinants Distinguishing Active from Inactive Cell-Penetrating Peptides for Cytosolic mRNA Delivery” (Bioconjugate Chemistry, 2023).
Positions of bridges follow the written chain, without caps; N, C: chain ends. Non-standard residues stand in square brackets, D forms with d. Residues, ends and D or L forms follow the SMILES beside them. No end group written: not given here. *: point of attachment. Stearoyl = CCCCCCCCCCCCCCCCCC(=O)*; Orn = NCCC[C@H](N)C(=O)O

Experiments:
MC3T3 cells [1] = assay: Resazurin assay of metabolic activity after mRNA transfection; type: cell-based, murine; parameters: concentration or dose not given beside the values; settings: normalized to untreated
Method: (§1) One day before mRNA transfections, 10 000 MC3T3 cells in 100 μL were seeded in 96-well plates (Greiner Bio-One Cat. No. 655180) or 20 000 cells in 200 μL in μ-slide eight-well chambers (Ibidi, Gräfelfing, Germany). These seeding densities ensured confluency between ∼70 and 90% on the day of transfection. mRNA transfections were performed by removing the complete medium from the wells and replacing it with mRNA nanoparticles diluted 10 times in complete medium. Cells were exposed to mRNA nanoparticles for 2 h at 37 °C, 5% CO2, in a humidified incubator. For some experiments, cells were stained with 200 μL of 1 μM CellTrace yellow (Thermo Fisher Scientific, Cat. No. C34567) directly after the nanoparticle incubation, according to the manufacturer’s instructions. Regardless of the tested N/P ratio or type of nanoparticle, mRNA inputs were equalized across conditions, resulting in 107 ng/well for luciferase assays in 96-well plate formats and 214 ng/well for confocal microscopy experiments. […] For untreated controls, complete cell culture medium was added and refreshed as often as in the experimental conditions.
(§2) The resazurin-based assay was performed essentially as described previously.[61],[62] In brief, the effect of different peptide-mRNA complexes on the metabolic activity of cells was measured 24 h post-transfection. Resazurin sodium salt (Sigma-Aldrich, Cat No. R7017) was dissolved in PBS and diluted 100 times to a final concentration of 100 μg/mL in complete medium. After 2 h of incubation with cells at 37 °C, fluorescence was measured using the VICTOR X3Multilabel Plate Reader (PerkinElmer, Waltham, MA, USA). After briefly shaking the plate, resazurin was excited at 485 nm, and emission was collected from 570 to 620 nm. All samples were blanked by the average signal of cell-free wells. Blanked data were normalized to untreated conditions per cell type.

HeLa cells [2] = assay: as above; type: cell-based, human; settings: normalized to untreated
Method: as §1, §2

[3] = Heparin-mediated polyplex decomplexation assay (QuantiFluor RNA); type: physicochemical; settings: for stability of polyplexes against heparin-induced decomplexation: N/P 5, TE buffer pH 7.5, 37 °C 90 min, released mRNA by QuantiFluor RNA dye, Figure 7; for difference in heparin decomplexation: N/P 1 and 3, low or high heparin amounts
Method: For testing the stability of mRNA polyplexes, a polyanion decomplexation assay, mediated by the polyanionic heparin (heparin sodium salt from porcine intestinal mucosa, Cat. No. H3149-100 KU, Sigma-Aldrich) was performed. mRNA polyplexes were freshly prepared with uncapped SecNLuc mRNA (RIBOPRO), as described in the section mRNA Nanoparticle Formation. Following polyplex formation, all samples were incubated for at least 30 min at room temperature. Importantly, separate stock solutions of heparin were made to ensure an equal volume across conditions regardless of heparin concentration. For decomplexation, 5 μL of 10× polyplexes were diluted in RNase-free TE-buffer at pH 7.5 (Promega, Cat. No. E260A) supplemented with an equal volume of heparin across conditions to a total volume of 50 μL in a 384-well plate (Greiner Bio-One, Cat. No. 781101). All samples were quickly spun down before incubation at 37 °C for 90 min. The QuantiFluor RNA System (Promega, Cat. No. E3310) was used with a 1:2000 dilution of RNA-binding dye for all tested conditions to detect released mRNA. For quantification, a calibration curve with uncapped SecNLuc mRNA was made, spanning from 0.19 ng mRNA/well to 50 ng mRNA/well. For detection of released mRNA, the dye was excited at 485 nm, and emission was collected at 535 nm using the VICTOR X3Multilabel Plate Reader (PerkinElmer)
Data analysis was performed using GraphPad Prism (GraphPad Software, version 8.4.2, San Diego, CA, USA). Data are presented as means ± standard deviation (SD) unless stated otherwise. Means were calculated by first averaging the technical replicates, for which outliers were identified using Grubbs’ test, followed by averaging the biological replicates. Before statistical analysis, all data were checked for normal distribution with a Shapiro–Wilk test. Statistical analysis was done using one- or two-way analysis of variance (ANOVA). Multiple comparisons were corrected using Tukey’s test with 95% confidence intervals. For the mRNA standard curve used in heparin decomplexation assays, the coefficient of variation was determined both in the standards and in samples and was ≤20%. The standard curve was fitted using a sigmoidal four-parameter logistic curve. The standard curve was back fitted with ±10% accuracy to verify the correctness of the fit. The signals from samples were blanked with the appropriate solution (TE buffer) before calculating interpolations. p > 0.05 was considered not significant, and p values were reported using the GraphPad Prism style (*p ≤ 0.05, **p ≤ 0.01, ***p ≤ 0.001, and ****p ≤ 0.0001).

MC3T3 cells [4] = assay: eGFP protein expression after mRNA transfection, live-cell confocal microscopy; type: cell-based, murine; settings: N/P 3, eGFP mRNA, 24 h post-transfection
Method: (§3) Peptide-mRNA polyplexes were formulated as previously described.[40],[41] In short, two separate stock solutions of mRNA and peptide were prepared in MQ and simultaneously dispensed with electronically dispensing pipettes (E4 Electronic Pipette, LTS E4-100XLS+, Mettler-Toledo Rainin, LLC, Oakland, CA, USA) at a flow rate of 11 mL min^–1. All polyplexes were formed at a concentration of at least 10-fold the final intended concentration for transfections.
as §1
Before microscopy, complete medium containing phenol red was replaced with an equal volume of phenol red-free and HEPES-formulated Opti-MEM (Gibco). The uptake of Cy5-eGFP mRNA-formulated nanoparticles was assessed 2 h post-transfection, and eGFP expression was assessed 24 h post-transfection. […] All laser lines were generated by a white-light laser, and emissions were detected with hybrid detectors. […]

MC3T3 cells [5] = assay: Luciferase expression after SecNLuc mRNA transfection (Nano-Glo); type: cell-based, murine
Method: as §3
One day before mRNA transfections, 10 000 MC3T3 cells in 100 μL were seeded in 96-well plates (Greiner Bio-One Cat. No. 655180) or 20 000 cells in 200 μL in μ-slide eight-well chambers (Ibidi, Gräfelfing, Germany). These seeding densities ensured confluency between ∼70 and 90% on the day of transfection. mRNA transfections were performed by removing the complete medium from the wells and replacing it with mRNA nanoparticles diluted 10 times in complete medium. Cells were exposed to mRNA nanoparticles for 2 h at 37 °C, 5% CO2, in a humidified incubator. […]
The extent of luciferase production was determined using the Nano-Glo Luciferase Assay (Promega, Madison, WI, USA, Cat No. N1130) according to the manufacturer’s instructions. […] Luminescence was measured after briefly shaking the plate using the VICTOR X3Multilabel Plate Reader (PerkinElmer, Waltham, MA, USA).

HeLa cells [6] = assay: as above; type: cell-based, human
[7] = Dynamic light scattering of peptide-mRNA nanoparticles; type: physicochemical; settings: hLF-v1 mRNA polyplexes, context: upon polymerization; N/P not printed at the place; DLS 25 °C, no serum
Method: as §3
The hydrodynamic diameter of the nanoparticles was measured at 25 °C by dynamic light scattering (DLS) using a Zetasizer Nano ZS (Malvern Instruments, Worcestershire, UK) equipped with a 4 mW He–Ne laser (633 nm) with a backscatter detection angle of 173°. At least 40 μL of 10 times concentrated nanoparticle solution was measured in a UV-cuvette (BrandTech Scientific, Essex, CT, USA, Cat. No. 759200).

MC3T3 cells [8] = assay: Cellular uptake of Cy5-eGFP mRNA polyplexes, live-cell confocal microscopy; type: cell-based, murine
Method: as §3, §1
Before microscopy, complete medium containing phenol red was replaced with an equal volume of phenol red-free and HEPES-formulated Opti-MEM (Gibco). The uptake of Cy5-eGFP mRNA-formulated nanoparticles was assessed 2 h post-transfection, and eGFP expression was assessed 24 h post-transfection. Live-cell imaging was performed using a Leica TCS SP8 SMD (Leica Microsystems, Mannheim, Germany) with an HC PL APO CS2 63×/1.20 water objective and a temperature-controlled stage at 36.5 °C. eGFP was excited at 488 nm (emission: 500–550 nm). CellTrace yellow was excited at 555 nm (emission: 570–620 nm), and Cy5 was excited at 633 nm (emission: 650–690 nm). All laser lines were generated by a white-light laser, and emissions were detected with hybrid detectors. All channels were sequentially acquired to avoid crosstalk at a bit depth of 12. Except for the LMM eGFP conditions (reduced gain), equal acquisition settings (pixel size, pinhole, laser power, and gain) per fluorophore were used within the experiments.
Quantification of the Cy5 fluorescence was performed as previously described.[59],[60] In brief, five separate images (unless stated otherwise) containing approximately 10 cells per image were analyzed using ImageJ (version 1.53f51). A square mask of 184.52 μm^2 was used to quantify the raw integrated density (sum of all pixels in a region of interest). Importantly, cell confluencies ranged from ∼80–95%, ensuring minimal impact of cell density on total fluorescence values. The brightness and contrast of the images were adjusted to find a cell-free region to determine background fluorescence. Then, a circle was drawn to measure the background fluorescence. To obtain the corrected total cellular fluorescence (CTCF), the area (in pixels) was multiplied by the mean gray value of the background and subsequently subtracted from the raw integrated density.

[9] = N/P 5, resazurin 24 h post-transfection

CC[C@H](C)[C@H](NC(=O)[C@@H]1CSSC[C@H](NC(=O)[C@H](CCCCN)NC(C)=O)C(=O)N[C@@H](Cc2ccccc2)C(=O)N[C@@H](CCC(N)=O)C(=O)N[C@@H](Cc2c[nH]c3ccccc23)C(=O)N[C@@H](CCC(N)=O)C(=O)N[C@@H](CCCNC(=N)N)C(=O)N[C@@H](CC(N)=O)C(=O)N[C@@H](CCSC)C(=O)N[C@@H](CCCNC(=N)N)C(=O)N[C@@H](CCCCN)C(=O)N[C@@H](C(C)C)C(=O)N[C@@H](CCCNC(=N)N)C(=O)NCC(=O)N2CCC[C@H]2C(=O)N2CCC[C@H]2C(=O)N[C@@H](C(C)C)C(=O)N[C@@H](CO)C(=O)N1)C(=O)N[C@@H](CCCCN)C(=O)N[C@@H](CCCNC(=N)N)C(N)=O [Mono-hLF-WT] (Ac-KCFQWQRNMRKVRGPPVSCIKR-NH2; disulfide 2-19)
relative metabolic activity (MC3T3 cells [1]; MC3T3, N/P 3, resazurin 24 h post-transfection): 125%
relative metabolic activity (HeLa cells [2]; [9]): 83%
stability of polyplexes against heparin-induced decomplexation [3]: significantly lower stability of these polyplexes compared to PF14, except for the highest heparin dose

CCCCCCCCCCCCCCCCCC(=O)N[C@@H](C)C(=O)NCC(=O)N[C@@H](Cc1ccc(O)cc1)C(=O)N[C@@H](CC(C)C)C(=O)N[C@@H](CC(C)C)C(=O)NCC(=O)N[C@@H](CCCCN)C(=O)N[C@@H](CC(C)C)C(=O)N[C@@H](CC(C)C)C(=O)N[C@@H](CCCN)C(=O)N[C@@H](CCCN)C(=O)N[C@@H](CC(C)C)C(=O)N[C@@H](C)C(=O)N[C@@H](C)C(=O)N[C@@H](C)C(=O)N[C@@H](C)C(=O)N[C@@H](CC(C)C)C(=O)N[C@@H](CCCN)C(=O)N[C@@H](CCCN)C(=O)N[C@@H](CC(C)C)C(=O)N[C@@H](CC(C)C)C(N)=O [PF14, reference compound] (Stearoyl-AGYLLGKLL[Orn][Orn]LAAAAL[Orn][Orn]LL-NH2)
relative metabolic activity (MC3T3 cells [1]; MC3T3, N/P 5, resazurin 24 h post-transfection): 64%
relative metabolic activity (HeLa cells [2]; N/P 3, resazurin 24 h post-transfection): 72%
relative metabolic activity (HeLa cells [2]; [9]): 13%
stability against heparin decomplexation ([3]; N/P 7, low heparin dose, Figure S8): least stable

KCFQWLRNLRKVRALLVSCLKR (disulfide 2-19 (inferred)) [poly hLF-v1, polymeric hLF-v1]
eGFP protein expression (MC3T3 cells [4]): successful delivery
luciferase expression as fraction of PF14-induced expression (MC3T3 cells [5]; MC3T3, N/P 5): approximately half
luciferase expression (HeLa cells [6]; N/P 3, compared to untreated): significant luciferase expression
luciferase expression higher than PF14 (HeLa cells [6]; N/P 5): ~5%
difference in heparin decomplexation ([3]; Figure S8): no difference

KCFQWLRNLRKVRALLVSCLKR [hLF-v1, amphipathic hLF variant with PF14 motifs and the same cationic amino acids as hLF-WT]
monodisperse particle size by DLS [7]: 72 ± 2.1 nm
effect of oligomerization on uptake (MC3T3 cells [8]; 2 h incubation, Cy5-labeled mRNA, polymerized vs monomeric, Figure 5, Figure S5): no benefit for uptake
uptake of Cy5-labeled mRNA polyplexes of amphipathic hLF variants (MC3T3 cells [8]; 2 h incubation, live-cell confocal microscopy, serum present, Figure 5, four independent experiments): performed the worst and tended to aggregate upon polymerization
eGFP protein expression (MC3T3 cells [4]): fewer cells were positive for eGFP expression than for PF14

KCFQWQRNMRKVRGPPVSCIKR (disulfide 2-19 (inferred)) [Poly hLF-WT, hLF-WT oligomerized through intermolecular disulfide bonds]
stability of polyplexes against heparin-induced decomplexation [3]: significantly lower release of mRNA

KCFQWQRNMRKVRGPPVSCIKR [hLF-WT]
ratio of Poly hLF-x vs Mono-hLF-x, Corrected Total Cellular Fluorescence (Cy5) (MC3T3 cells [8]; Cy5-eGFP mRNA polyplexes, 2 h post-transfection, n = 5 fields of view per condition): 2.33 x
cellular uptake of Cy5-labeled eGFP mRNA (MC3T3 cells [8]; N/P 3 polyplexes (LMM lipoplexes), 2 h post-transfection, complete medium with 10% FBS, confocal, Figure 1, five independent experiments): only little uptake
eGFP protein expression (MC3T3 cells [4]): no expression
luciferase activity (MC3T3 cells [5]; MC3T3, independent of the N/P ratio (3 or 5)): no activity

OCFQWQONMOOVOGPPVSCIOO (disulfide) [poly-hLF-Orn, hLF-Orn oligomerized through intermolecular disulfide bonds]
difference in heparin decomplexation ([3]; Figure S8): no difference
